Assays:
[1] = system: α-Amylase from the pancreas of pigs; assay: Amylase test (inhibition of α-amylase, amylase inhibitor units); assay type: biochemical; details: 1 AIU inhibits two amylase units by 50%, pH 6.9, 37° C.
Description: One amylase inhibitor unit (AIU) is defined as the amount of inhibitor which is capable of inhibiting two amylase units (AU) to the extent of 50% under the test conditions. By international agreement, one amylase unit is the amount of enzyme which cleaves 1 μEq of glucosidic bonds in starch in one minute. The μ equivalents of glucosidic bonds cleaved are determined photometrically, with dinitrosalicylic acid, as μEq of reducing sugars. The data are calculated as μmol of maltose, determined with the aid of a maltose calibration line.
α-Amylase from the pancreas of pigs and the solutions to be tested are preincubated together in 1.0 ml of 20 mM phosphate buffer, pH 6.9, +10 mM NaCl at 37° C. for 10-20 minutes. The enzymatic reaction is started by addition of 1.0 ml of soluble starch (0.25% strength in the buffer described) according to Zulkowski. After exactly 10 minutes, the reaction istopped with 2.0 ml of dinitrosalicylic acid color reagent (from Boehringer Mannheim: Biochemica-Information II), and the mixture is heated in a boiling waterbath for 5 minutes for color development. After cooling, the extinction is measured against the reagent blank at 546 nm. The 50% inhibition is determined graphically by means of a probability plot in comparison with the non-inhibited enzyme reaction using various amounts of inhibitor.

[2] = system: blood sugar; assay: Blood sugar after oral starch load in fasting male Wistar rats; assay type: in vivo; details: simultaneously with 2 g of starch per kg, fasting male Wistar rats 200-250 g
From the text: The α-glucosidase inhibitor according to the invention is particularly suitable for ora administration. It can be administered as the pure substance, as a physiologically acceptable salt with acids or in the form of a pharmaceutical formulation, using the customary auxiliaries and excipients. Combined use with other medicaments, such as hypoglycemic or lipid-lowering substances, may also be advantageous. Since high molecular weight saccharides are not, or not noticeably, absorbed as such from the digestive tract, no toxicologically unacceptable side effects are to be expected of the substance according to the invention. […] To test the pharmacological action of the AI-5662, fasting male Wistar rats weighing between 200 and 250 g were given an oral administration of the inhbitor AI-5662 according to the invention simultaneously with 2 g of starch per kg of body weight. […] Besides blood glucose regulation, the […] according to the invention can also be used for inhibiting salivary α-amylase. This enzyme effects digestion of starch in the mouth, and the sugar thus formed promotes caries of the teeth. The compound according to the invention can therefore be used to prevent or reduce the development of caries.

[3] = Solubility in water; assay type: physicochemical
[4] = system: experimental animals; assay: Oral administration of high doses to experimental animals (tolerability); assay type: in vivo

C[C@H]1O[C@H](O[C@H]2[C@H](O)[C@@H](O)[C@@H](O[C@H]3[C@H](O)[C@@H](O)C(O)O[C@@H]3CO)O[C@@H]2CO)[C@H](O)[C@@H](O)[C@@H]1N[C@H]1C=C(CO)[C@@H](O[C@H]2O[C@H](CO)[C@@H](O[C@H]3O[C@H](C)[C@@H](N[C@H]4C=C(CO)[C@@H](O)[C@H](O)[C@H]4O)[C@H](O)[C@H]3O)[C@H](O)[C@H]2O)[C@H](O)[C@H]1O (some centres unmarked) [AI-5662]
α-amylase-inhibiting action ([1]; freeze-dried white amorphous powder of Example 2): 4×10^4 AIU per mg | specific activity ([1]; purified product after silica gel chromatography): 4×10^4 α-amylase inhibitor units per mg | efficacy on blood sugar concentrations [2]: The efficacy of the product was demonstrated | solubility in water [3]: readily soluble in water | signs following oral administration even of high doses [4]: no notworthy signs were detected

Source: patent publication US4618602A, “Amine containing pseudooligosaccharide, pharmaceutical composition and method of use” (Hoechst Aktiengesellschaft, priority 1984, dated 1986)
